Literature values, collected in patent US20100028425A1, “PHARMACEUTICAL COMPOSITION OF ATOVAQUONE” (GLENMARK GENERICS LTD., priority 2008, published 2010).

solubility in water: practically insoluble
Compound: O=C1C(O)=C([C@H]2CC[C@H](c3ccc(Cl)cc3)CC2)C(=O)c2ccccc21 [Atovaquone, trans 2-[4-(4-chlorophenyl)cyclohexyl]-3-hydroxy-1,4-naphthalenedione]
